Assay results taken from the CheMixHub viscosity set.

Assay: xn = mol fraction of the nth substance listed

CCC(=O)c1ccccc1 + CCOCCO
viscosity [mPa·s], 101 kPa
Conditions | x1 = 0.0756 | x1 = 0.1554 | x1 = 0.2397 | x1 = 0.3291 | x1 = 0.4239 | x1 = 0.5246 | x1 = 0.6319 | x1 = 0.7464 | x1 = 0.8688
303.15 K | 1.562 | 1.555 | 1.547 | 1.54 | 1.532 | 1.526 | 1.522 | 1.517 | 1.515
308.15 K | 1.466 | 1.464 | 1.462 | 1.461 | 1.461 | 1.461 | 1.462 | 1.464 | 1.466
313.15 K | 1.366 | 1.369 | 1.372 | 1.376 | 1.381 | 1.387 | 1.394 | 1.401 | 1.41
318.15 K | 1.279 | 1.285 | 1.291 | 1.3 | 1.309 | 1.32 | 1.331 | 1.343 | 1.357

O=CN1CCOCC1 + CCc1ccccc1
298.15 K, 101.3 kPa
Conditions | viscosity [mPa·s]
x2 = 0.03224 | 6.848
x2 = 0.06252 | 6.122
x2 = 0.08602 | 5.678
x2 = 0.1584 | 4.43
x2 = 0.2704 | 3.151
x2 = 0.3512 | 2.527
x2 = 0.4701 | 1.841
x2 = 0.5569 | 1.511
x2 = 0.6373 | 1.261
x2 = 0.6888 | 1.137
x2 = 0.7771 | 0.986
x2 = 0.8636 | 0.829
x2 = 0.9317 | 0.713

CCCCCCn1cc[n+](C)c1.[Cl-] + CN1CCCC1=O
100 kPa
Conditions | viscosity [mPa·s]
293.15 K, x1 = 0.0917 | 4.165
293.15 K, x1 = 0.3673 | 49.65
298.15 K, x1 = 0.1861 | 8.485
303.15 K, x1 = 0.3673 | 31.75
308.15 K, x1 = 0.1861 | 6.465

OCCO + CN1CCCC1=O
101.33 kPa
Conditions | viscosity [mPa·s]
298.15 K, x2 = 0.04751 | 15.44
298.15 K, x2 = 0.09916 | 13.78
298.15 K, x2 = 0.1991 | 10.76
298.15 K, x2 = 0.3018 | 8.242
298.15 K, x2 = 0.4012 | 6.415
298.15 K, x2 = 0.5073 | 4.977
298.15 K, x2 = 0.6067 | 3.952
298.15 K, x2 = 0.7014 | 3.171
298.15 K, x2 = 0.8018 | 2.527
298.15 K, x2 = 0.9001 | 2.066
298.15 K, x2 = 0.9545 | 1.852
308.15 K, x2 = 0.04799 | 10.58
308.15 K, x2 = 0.1004 | 9.465
308.15 K, x2 = 0.2025 | 7.514
308.15 K, x2 = 0.3042 | 5.982
308.15 K, x2 = 0.4097 | 4.697
308.15 K, x2 = 0.5032 | 3.855
308.15 K, x2 = 0.6042 | 3.122
308.15 K, x2 = 0.6992 | 2.566
308.15 K, x2 = 0.7967 | 2.112
308.15 K, x2 = 0.9027 | 1.716
308.15 K, x2 = 0.9599 | 1.543
318.15 K, x2 = 0.04516 | 7.524
318.15 K, x2 = 0.1031 | 6.736
318.15 K, x2 = 0.1996 | 5.567
318.15 K, x2 = 0.2999 | 4.538
318.15 K, x2 = 0.4047 | 3.687
318.15 K, x2 = 0.5078 | 3.015
318.15 K, x2 = 0.6054 | 2.505
318.15 K, x2 = 0.6952 | 2.124
318.15 K, x2 = 0.7968 | 1.771
318.15 K, x2 = 0.8899 | 1.498
318.15 K, x2 = 0.9612 | 1.327

CCCCCC(C)O (configuration not stated) + CN(C)C=O
viscosity [mPa·s], 101 kPa
Conditions | x2 = 0.1086 | x2 = 0.153 | x2 = 0.24 | x2 = 0.3446 | x2 = 0.4409 | x2 = 0.5599 | x2 = 0.6544 | x2 = 0.7432 | x2 = 0.8428 | x2 = 0.9372
298.15 K | 4.28 | 4 | 3.56 | 3.15 | 2.78 | 2.35 | 2.01 | 1.68 | 1.34 | 1.03
303.15 K | 3.46 | 3.21 | 2.85 | 2.52 | 2.25 | 1.92 | 1.67 | 1.42 | 1.17 | 0.93
308.15 K | 2.79 | 2.6 | 2.31 | 2.04 | 1.83 | 1.58 | 1.4 | 1.22 | 1.03 | 0.84
313.15 K | 2.32 | 2.15 | 1.91 | 1.69 | 1.53 | 1.34 | 1.2 | 1.07 | 0.91 | 0.77

C=CCN=C=S + CN(C)c1ccccc1
303.15 K, 101 kPa
Conditions | viscosity [mPa·s]
x1 = 0.2324 | 1.032
x1 = 0.4846 | 0.884
x1 = 0.7377 | 0.761

CCC(=O)c1ccccc1 + CN(C)c1ccccc1
viscosity [mPa·s], 101 kPa
Conditions | 303.15 K | 308.15 K
x2 = 0.0658 | 1.475 | 1.429
x2 = 0.1256 | 1.445 | 1.398
x2 = 0.1989 | 1.411 | 1.362
x2 = 0.2531 | 1.388 | 1.338
x2 = 0.3331 | 1.358 | 1.305
x2 = 0.4074 | 1.332 | 1.279
x2 = 0.4755 | 1.309 | 1.254
x2 = 0.5265 | 1.293 | 1.237
x2 = 0.6121 | 1.268 | 1.21
x2 = 0.6923 | 1.249 | 1.187
x2 = 0.7625 | 1.229 | 1.167
x2 = 0.8156 | 1.217 | 1.155
x2 = 0.8625 | 1.208 | 1.144

CC(C)NC(C)C + CNC(C)=O
308.15 K, 101 kPa
Conditions | viscosity [mPa·s]
x2 = 0.0739 | 0.3617
x2 = 0.2151 | 0.5132
x2 = 0.3226 | 0.7392
x2 = 0.4754 | 1.069
x2 = 0.6497 | 1.625
x2 = 0.786 | 2.167
x2 = 0.8761 | 2.652
x2 = 0.9277 | 2.973
x2 = 0.9762 | 3.194

CCC(=O)c1ccccc1 + CNC(C)=O
308.15 K, 101 kPa
Conditions | viscosity [mPa·s]
x1 = 0.06 | 2.972
x1 = 0.1269 | 2.778
x1 = 0.1862 | 2.61
x1 = 0.2778 | 2.38
x1 = 0.3654 | 2.19
x1 = 0.4649 | 2.005
x1 = 0.5709 | 1.828
x1 = 0.6929 | 1.648
x1 = 0.8315 | 1.485

OCCO + CO
Conditions | viscosity [mPa·s]
293.15 K, 101.33 kPa, x1 = 0.0476 | 0.724
293.15 K, 101.33 kPa, x1 = 0.0598 | 0.766
293.15 K, 101.33 kPa, x1 = 0.0918 | 0.914
293.15 K, 101.33 kPa, x1 = 0.1023 | 0.918
293.15 K, 101.33 kPa, x1 = 0.1742 | 1.243
293.15 K, 101.33 kPa, x1 = 0.2098 | 1.409
293.15 K, 101.33 kPa, x1 = 0.3191 | 2.142
293.15 K, 101.33 kPa, x1 = 0.3538 | 2.413
293.15 K, 101.33 kPa, x1 = 0.4072 | 2.906
293.15 K, 101.33 kPa, x1 = 0.4225 | 3.085
293.15 K, 101.33 kPa, x1 = 0.4474 | 3.338
293.15 K, 101.33 kPa, x1 = 0.4889 | 3.824
293.15 K, 101.33 kPa, x1 = 0.5955 | 5.485
293.15 K, 101.33 kPa, x1 = 0.6932 | 7.481
293.15 K, 101.33 kPa, x1 = 0.836 | 11.43
293.15 K, 101.33 kPa, x1 = 0.859 | 12.3
298.15 K, 101 kPa, x1 = 0.1 | 0.8363
298.15 K, 101 kPa, x1 = 0.2 | 1.245
298.15 K, 101 kPa, x1 = 0.2969 | 1.998
298.15 K, 101 kPa, x1 = 0.3 | 1.795
298.15 K, 101 kPa, x1 = 0.34 | 2.045
298.15 K, 101 kPa, x1 = 0.4 | 2.562
298.15 K, 101 kPa, x1 = 0.5 | 3.602
298.15 K, 101 kPa, x1 = 0.6 | 5.022
298.15 K, 101 kPa, x1 = 0.7 | 6.964
298.15 K, 101 kPa, x1 = 0.8 | 9.561
298.15 K, 101 kPa, x1 = 0.9 | 13.09
308.15 K, 101 kPa, x1 = 0.1 | 0.7007
308.15 K, 101 kPa, x1 = 0.2 | 1.011
308.15 K, 101 kPa, x1 = 0.2969 | 1.634
308.15 K, 101 kPa, x1 = 0.3 | 1.442
308.15 K, 101 kPa, x1 = 0.4 | 2.032
308.15 K, 101 kPa, x1 = 0.5 | 2.818
308.15 K, 101 kPa, x1 = 0.6 | 3.883
308.15 K, 101 kPa, x1 = 0.7 | 5.269
308.15 K, 101 kPa, x1 = 0.8 | 6.952
308.15 K, 101 kPa, x1 = 0.9 | 9.251
318.15 K, 101 kPa, x1 = 0.1 | 0.6194
318.15 K, 101 kPa, x1 = 0.2 | 0.8557
318.15 K, 101 kPa, x1 = 0.2969 | 1.36
318.15 K, 101 kPa, x1 = 0.3 | 1.172
318.15 K, 101 kPa, x1 = 0.4 | 1.59
318.15 K, 101 kPa, x1 = 0.5 | 2.134
318.15 K, 101 kPa, x1 = 0.6 | 2.844
318.15 K, 101 kPa, x1 = 0.7 | 3.783
318.15 K, 101 kPa, x1 = 0.8 | 4.96
318.15 K, 101 kPa, x1 = 0.9 | 6.432

S=C=S + CO
298.15 K, 101.33 kPa
Conditions | viscosity [mPa·s]
x1 = 0.0437 | 0.5883
x1 = 0.0987 | 0.5838
x1 = 0.1521 | 0.5538
x1 = 0.2248 | 0.5669
x1 = 0.2969 | 0.57
x1 = 0.9488 | 0.4088

CCC(=O)c1ccccc1 + COCCO
viscosity [mPa·s], 101 kPa
Conditions | x1 = 0.0624 | x1 = 0.1302 | x1 = 0.2041 | x1 = 0.2852 | x1 = 0.3744 | x1 = 0.4731 | x1 = 0.5827 | x1 = 0.7054 | x1 = 0.8434
303.15 K | 1.568 | 1.562 | 1.557 | 1.551 | 1.545 | 1.54 | 1.534 | 1.529 | 1.523
308.15 K | 1.394 | 1.398 | 1.403 | 1.408 | 1.414 | 1.422 | 1.431 | 1.442 | 1.454
313.15 K | 1.234 | 1.246 | 1.259 | 1.274 | 1.292 | 1.312 | 1.334 | 1.359 | 1.388
318.15 K | 1.108 | 1.125 | 1.145 | 1.167 | 1.192 | 1.22 | 1.251 | 1.287 | 1.328

NCc1ccccc1 + COc1ccccc1
303.15 K, 101 kPa
Conditions | viscosity [mPa·s]
x1 = 0.1 | 0.939
x1 = 0.2 | 0.975
x1 = 0.3 | 1.016
x1 = 0.3999 | 1.061
x1 = 0.4999 | 1.11
x1 = 0.5999 | 1.163
x1 = 0.7 | 1.22
x1 = 0.8 | 1.281
x1 = 0.9 | 1.346

O=C[C@H](O)[C@@H](O)[C@H](O)[C@H](O)CO + CS(C)=O
viscosity [mPa·s], 101 kPa
Conditions | x1 = 0.04081 | x1 = 0.08276 | x1 = 0.1291 | x1 = 0.1784
298.15 K | 3.819 | 8.234 | 21.23 | 62.65
308.15 K | 2.988 | 5.977 | 13.9 | 36.04
318.15 K | 2.408 | 4.525 | 9.672 | 22.4

O=CN1CCOCC1 + Cc1cc(C)cc(C)c1
298.15 K, 101.3 kPa
Conditions | viscosity [mPa·s]
x2 = 0.02898 | 7.041
x2 = 0.0601 | 6.315
x2 = 0.08748 | 5.789
x2 = 0.1453 | 4.838
x2 = 0.2504 | 3.53
x2 = 0.3197 | 2.903
x2 = 0.4426 | 2.093
x2 = 0.5274 | 1.701
x2 = 0.6167 | 1.375
x2 = 0.661 | 1.264
x2 = 0.7503 | 1.058
x2 = 0.8348 | 0.877
x2 = 0.9476 | 0.731
